The text below walks through data of patent publication US8293721B2, “CETP inhibitors derived from benzoxazole arylamides” (Merck Sharpe & Dohme Corp., priority 2007, dated 2012).

The target in this test is T1, recombinant human CETP (Homo sapiens, UniProt P11597).
T1 construct: made in house; host or cells: CHO cells
T1 sequence (P11597 18-493): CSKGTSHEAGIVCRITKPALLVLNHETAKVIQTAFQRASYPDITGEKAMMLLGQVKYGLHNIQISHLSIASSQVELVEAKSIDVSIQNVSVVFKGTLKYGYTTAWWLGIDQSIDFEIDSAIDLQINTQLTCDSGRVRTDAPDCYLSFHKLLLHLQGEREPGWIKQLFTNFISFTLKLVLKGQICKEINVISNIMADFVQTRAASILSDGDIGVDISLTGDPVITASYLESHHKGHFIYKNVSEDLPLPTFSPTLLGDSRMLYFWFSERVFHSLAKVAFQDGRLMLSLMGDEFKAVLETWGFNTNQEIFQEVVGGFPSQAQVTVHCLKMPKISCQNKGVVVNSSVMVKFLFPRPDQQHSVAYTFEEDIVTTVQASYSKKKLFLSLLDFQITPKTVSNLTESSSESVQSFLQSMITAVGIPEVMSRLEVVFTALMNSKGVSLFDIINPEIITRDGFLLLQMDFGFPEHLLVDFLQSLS
Briefly: In vitro continuous CETP assay, CE transfer reaction (BODIPY-CE donor particles, fluorescence). The note with it: 25° C., 3% human serum, stated for the compounds 'or a stereoisomer of the compounds', read-out: IC50 value as measured for the CE transfer reaction. The test is classed as biochemical. How it is done: An in vitro continuous assay for determining IC50's to identify compounds that are CETP inhibitors was performed based on a modification of the method described by Epps et al. employing BODIPY®-CE as the cholesteryl ester lipid donor and BODIPY®-TG as the triglyceride lipid donor. See Epps et al. (1995) Method for measuring the activities of cholesteryl ester transfer protein (lipid transfer protein), Chem. Phys. Lipids. 77, 51-63.
Particles used in the assay were created from the following materials by probe sonication essentially as described by Epps et al. Synthetic cholesteryl ester (CE) donor HDL particles contained DOPC (Dioleoyl Phosphatidyl Choline), BODIPY®-CE (Molecular Probes C-3927), triolein (a triglyceride), dabcyl dicetylamide, (a non-diffusable quencher molecule to reduce background fluorescence) and apoHDL. Synthetic triglyceride (TG) donor HDL particles contained DOPC, BODIPY®-TG, and apoHDL. BODIPY®-TG was synthesized at room temperature from diolein and the BODIPY containing fatty acid analog 4,4-difluoro-5-(2-thienyl)-4-bora-3a,4a-diaza-s-indacene-3-dodecanoic acid (Molecular Probes) in methylene chloride in the presence of dicyclohexyl carbodimide. Dabcyl dicetylamide was made by heating dabcyl n-succinimide with dicetylamine in DMF at 95° C. overnight in the presence of diisopropylamine catalyst. Native lipoproteins from human blood were used as acceptor particles. Particles having a density less than 1.063 g/ml were collected by ultracentrifugation. These particles include VLDL, IDL, and LDL. Particle concentrations were expressed in terms of protein concentration as determined by BCA assay (Pierce, USA). Particles were stored at 4° C. until use.
Assays were performed in Dynex Microfluor 2 U-bottom black 96-well plates (Cat #7205). An assay cocktail containing CETP, 1×CETP buffer (50 mM Tris, pH 7.4, 100 mM NaCl, 1 mM EDTA), 3% human serum, and half the final concentration of acceptor particles was prepared, and 100 μL of the assay cocktail was added to each well of the plate. Test compounds in DMSO were added in a volume of 3 μL. The plate was mixed on a plate shaker and then incubated at 25° C. for 1 hour. A second assay cocktail containing donor particles, the remaining acceptor particles and 1×CETP buffer was prepared. 47 μL of the second assay cocktail was added to the reaction wells to start the assay. Assays were performed in a final volume of 150 μL. CE transfer reactions were performed as follows: final concentrations of materials were: 2.5 ng/μL CE donor particles, 7.5 ng/μL acceptor particles (each expressed by protein content), 1×CETP buffer, 14-30 nM recombinant human CETP (expressed in CHO cells and partially purified), and up to 2% DMSO when testing compounds; reactions were followed in a fluorescence plate reader (Molecular Devices Spectramax GeminiXS) set for a 45 minute kinetic run at 25° C. which read the samples every 45 sec at Ex=480 nm, Em=511 nm, with a cutoff filter at 495 nm, photomultiplier tube setting of medium, calibration on, and 6 reads/well. TG transfer reactions were performed as described above with the exception that 2.5 ng/uL TG donor particles were used. TG transfer was measured at an excitation wavelength of 538 nm while reading emission at 568 nm every 45 sec for 45 min at 37° C. with a cutoff filter at 550 nm.
Data were evaluated by obtaining an initial rate, expressed in relative fluorescence units per second, for the pseudolinear portion of the curve, often 0-500 or 1000 sec. Comparison of the rates of samples with inhibitors to an uninhibited (DMSO only) positive control yielded a percent inhibition. A plot of percent inhibition vs. log of inhibitor concentration, fit to a Sigmoidal 4 parameter equation was used to calculate IC50.

The IC50 is the midpoint of a concentration-inhibition curve. Take `CC(C)c1cc(C#N)cc2nc(-c3ccc(C(=O)NCC4CN(c5ccc(-c6ccccc6OC(F)(F)F)cn5)C(=O)O4)cc3)oc12` (stereo not shown) [Example 2, 4-(5-Cyano-7-isopropyl-1,3-benzoxazol-2-yl)-N-[(2-oxo-3-{5-[2-(trifluoromethoxy)phenyl]pyridin-2-yl}-1,3-oxazolidin-5-yl)methyl]benzamide]: the IC50 is 18 to 100 nM.

`CC(C)COc1ccccc1-c1ccc(N2CC(CNC(=O)c3ccc(-c4nc5cc(C#N)cc(C(C)C)c5o4)cc3)OC2=O)nc1` (stereo not shown) [Example 7]: the 50% inhibitory concentration (IC50) lay in the range of 18 to 100 nM.

`CC(C)Oc1ccc(F)cc1-c1ccc(N2C[C@@H](CNC(=O)c3ccc(-c4nc5cc(C#N)cc(C(C)C)c5o4)cc3)OC2=O)nc1` [Example 30]: the half-maximal inhibitory concentration (IC50) was 18 to 100 nM.

`COc1cc(F)c(C(C)C)cc1-c1ccc(N2C[C@@H](CNC(=O)c3ccc(-c4nc5cc(C#N)cc(C(C)C)c5o4)cc3)OC2=O)nc1` [Example 31]: the IC50 fell in the range of 18 to 100 nM.

On to `COc1ccccc1-c1ccc(N2C[C@H](CNC(=O)c3ccc(-c4nc5cc(C#N)cc(C(C)C)c5o4)cc3)OC2=O)nc1` [Example 43], for which the 50% inhibitory concentration (IC50) is 18 to 100 nM.

Consider `CC(C)Oc1cccc(F)c1-c1ccc(N2C[C@H](CNC(=O)c3ccc(-c4nc5cc(C#N)cc(C(C)C)c5o4)cc3)OC2=O)nc1` [Example 48], for which the half-inhibitory concentration (IC50) lay in the range of 18 to 100 nM.

Regarding `CC(C)c1cc(C#N)cc2nc(-c3ccc(C(=O)NCC4(C)CN(c5ccc(-c6ccccc6OC(F)(F)F)cn5)C(=O)O4)cc3)oc12` (stereo not shown) [Example 51, 4-(5-Cyano-7-isopropyl-1,3-benzoxazol-2-yl)-N-[(5-methyl-2-oxo-3-{5-[2-(trifluoro-methoxy)phenyl]pyridin-2-yl}-1,3-oxazolidin-5-yl)methyl]benzamide], the IC50 was in the range of 18 to 100 nM.

For the molecule `COc1ccccc1-c1ccc(N2CC(C)(CNC(=O)c3ccc(-c4nc5cc(C#N)cc(C(C)C)c5o4)cc3)OC2=O)nc1` (stereo not shown) [Example 53], the IC50 was in the range of 18 to 100 nM.

Regarding `CC(C)Oc1ccc(F)cc1-c1ccc(N2CC(C)(CNC(=O)c3ccc(-c4nc5cc(C#N)cc(C(C)C)c5o4)cc3)OC2=O)nc1` (stereo not shown) [Example 54], the IC50 was in the range of 18 to 100 nM.

Consider `CC(C)c1cc(C#N)cc2nc(-c3ccc(C(=O)NCC4(C)CN(c5ccc(-c6ccccc6)cn5)C(=O)O4)cc3)oc12` (stereo not shown) [Example 55], for which the IC50 was 18 to 100 nM.
